According to patent publication US8916543B1 (priority 2009, dated 2014):
“Also recorded” adds a separate entry of the source.

How the values were obtained:
[1] = molecular target: T1, α-toxin (Staphylococcus aureus, UniProt P09616); settings: cited from earlier work
[2] = tested on: S. aureus strain 8325-4; assay: Experimental keratitis in rabbits, S. aureus strain 8325-4, topical treatment; assay type: in vivo, Staphylococcus aureus; settings: rabbit eyes
Experimental: FIG. 4 is a set of graphs that show the effect of CD-cholesterol treatment of eyes infected with strain 8325-4. Rabbit corneas were injected with 10^2 CFU of S. aureus 8325-4. Eyes were randomized and treated with 1% CD-cholesterol, 1% CD, or PBS from 7 to 13 hours PI. At 7 hours PI, eyes were treated with a single topical drop every 15 minutes from 7 to 8 hours PI. At 8.5 hours PI, eyes were treated with a single topical drop every 30 minutes until 13 hours PI (a total of 15 drops). At 13 hours PI, the eyes were evaluated by SLE (A) and erosion diameters were measured using fluorescein strips (B) The pathologic changes were observed then averaged and statistical comparisons were performed using one-way ANOVA. The erosions were averaged and statistical comparisons using analysis of variance and Student's t-test were performed. Error bars are the standard error of the mean (SEM). P≦0.05, for either test, was considered significant. […] The eyes treated with 1% CD or with PBS had statistically similar SLE scores (P=0.4002). […] The eyes treated with 1% CD-cholesterol or 1% CD had erosion diameters similar to one another (P=0.4002).
(§1) Rabbits (n≧4 eyes per group) were infected as previously described, injecting approximately 100 colony forming units (CFU) of strain 8325-4 or strain 60171, a clinical isolate, in 10 μL of TSB into the stroma of the cornea. Accuracy of the inoculum size was verified by plating aliquots (100 μL) of serial dilutions in triplicate on TSA.
At 7 hours postinfection (PI), treatment began and consisted of a single topical drop of PBS, 1% CD, or 1% CD-cholesterol every 15 minutes from 7 to 8 hours PI. Then, beginning at 8.5 hours PI, a single drop was administered every 30 minutes until 13 hours PI; a total of 15 drops per eye. At 13 hours PI, corneal erosions were measured and all eyes underwent slit lamp examination (SLE) to quantify pathologic changes. […]
Corneas of rabbits infected with either S. aureus 8325-4 or 60171 were harvested at 14 hours PI and bacteria were quantified as described previously. […]

[3] = molecular target: T1, α-toxin; assay type: cell-based
[4] = molecular target: α-toxin heptamer (Staphylococcus aureus, UniProt P09616); settings: literature; cited from earlier work
[5] = tested on: S. aureus strain 60171; assay: Experimental keratitis in rabbits, S. aureus clinical isolate 60171, topical treatment; assay type: in vivo, Staphylococcus aureus; settings: rabbit eyes
Experimental: FIG. 5 is a set of graphs that show the effect of CD-cholesterol treatment of eyes infected with strain 60171. Eyes were treated and evaluated as described for FIG. 3. Error bars are the SEM. […] In contrast, the CD-treated eyes had similar SLE scores compared to the PBS-treated eyes (P=0.7403). […] There was no statistical difference between the eyes treated with 1% CD and the eyes treated with PBS (P=0.2131).
as §1
At 7 hours postinfection (PI), treatment began and consisted of a single topical drop of PBS, 1% CD, or 1% CD-cholesterol every 15 minutes from 7 to 8 hours PI. Then, beginning at 8.5 hours PI, a single drop was administered every 30 minutes until 13 hours PI; a total of 15 drops per eye. At 13 hours PI, corneal erosions were measured and all eyes underwent slit lamp examination (SLE) to quantify pathologic changes.
SLE of pathologic changes of rabbit eyes was performed by two masked observers as described previously.
Corneas of rabbits infected with either S. aureus 8325-4 or 60171 were harvested at 14 hours PI and bacteria were quantified as described previously.
These finding raised the possibility that CD-cholesterol could treat corneas infected with S. aureus. Rabbit corneas were injected with either S. aureus strain 8325-4 or S. aureus clinical isolate 60171. Rabbit eyes were treated from 7 to 13 hours PI with PBS, 1% CD, or 1% CD-cholesterol. […]
Strain 60171, an ocular clinical isolate, was injected into the corneas of rabbits to determine the effectiveness of treatments with CD-cholesterol, CD, or PBS. As described above, the pathologic changes and erosion development were observed via SLE at 13 hours PI (FIG. 2B) whereas the number of surviving bacteria was determined at 14 hours PI.

[6] = 1% topical drops 7 to 13 hours PI (15 drops), 13 hours PI
[7] = 1% topical drops 7 to 13 hours PI, 13 hours PI
[8] = 1% topical drops 7 to 13 hours PI, 14 hours PI

T1 sequence (P09616 27-319 limits assumed): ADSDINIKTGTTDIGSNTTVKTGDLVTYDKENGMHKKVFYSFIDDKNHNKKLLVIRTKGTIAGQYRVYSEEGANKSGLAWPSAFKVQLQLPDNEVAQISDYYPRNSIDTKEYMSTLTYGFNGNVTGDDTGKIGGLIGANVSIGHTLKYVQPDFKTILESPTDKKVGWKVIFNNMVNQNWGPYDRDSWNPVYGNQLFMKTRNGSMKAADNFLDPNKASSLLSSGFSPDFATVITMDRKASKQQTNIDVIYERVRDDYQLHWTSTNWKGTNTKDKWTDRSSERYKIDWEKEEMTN
Chain of α-toxin heptamer (P09616 27-319 limits assumed): as above

Compound | inhibition of α-toxin activity [1] | average SLE score [2, 6] | corneal erosion diameter [2, 7] | number of surviving S. aureus [2, 8] | reduction in α-toxin hemolytic titer [3] | binding to the pore of α-toxin heptamer [4] | average SLE score [5, 6] | diameter of corneal epithelial erosions [5, 7] | bacteria in the corneas [5, 8]
C[C@]12CCC(=O)C=C1CC[C@@H]1[C@@H]2[C@@H](O)C[C@@]2(C)[C@H]1CC[C@]2(O)C(=O)CO [hydrocortisone] | weakly inhibited | – | – | – | – | – | – | – | –
methyl-β-cyclodextrin [CD] | – | 9.23±0.39 | 4.55±0.28 mm | 9.36×10^6±4.22×10^5 bacteria per cornea | twofold; also recorded: two-fold | bind weakly | 9.02±0.90 | 4.83±0.31 mm | 2.42×10^7±8.96×10^6 bacteria
